Test results reported in ChEMBL document CHEMBL1151641, “Antitumor agents, 71. Nudaphantin, a new cytotoxic germacranolide, and elephantopin from Elephantopus nudatus” (1985).
≈ marks a conversion by molar mass, not a printed value.

Columns and labels:
Type in all cases: functional
KB = assay: Cytotoxicity against human KB cells
P388 [1] = assay: In vivo antileukemic activity against mouse P388 cells at 10 mg/kg relative to control
P388 [2] = assay: In vivo antileukemic activity against mouse P388 cells at 40 mg/kg relative to control

| SMILES | ED50 (KB) [µg/mL] | T/C (P388 [1]) [%] | T/C (P388 [2]) [%] | EC50 (KB; Homo sapiens, KB, read-out: ED50 (the source's name)) [µg/mL] |
| --- | --- | --- | --- | --- |
| C=C(C)C(=O)O[C@H]1CC2=C[C@@H](C[C@@]3(C)O[C@@H]3[C@H]3OC(=O)C(=C)[C@@H]31)OC2=O [ELEPHANTOPIN] | 0.32 (≈ 0.888 µM) | 160 | 171 | – |
| C=C(C)C(=O)O[C@H]1CC2=C[C@@H](C[C@@]3(C)O[C@@H]3[C@H]3OC(=O)C(=C)[C@@H]31)OC2OCC (some centres undefined) [NUDAPHANTIN] | – | – | – | 0.31 (≈ 0.794 µM) |
